According to PubChem BioAssay (NCI):
“And” between values parts separate entries of the source, which are not always exact repeats. Identical values can stand only once.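 Method: 48-hour compound exposure of cells in 96-well plates, five concentrations, linear interpolation of endpoints. Here, GI50 denotes the concentration required for 50% inhibition of growth. Definition used: TGI = concentration required for complete inhibition of growth.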

Columns and labels:
Assay in all cases: growth of human tumour cells (NCI), 48 h
HCC-2998 colon = tested on: HCC-2998 colon
SK-MEL-28 melanoma = tested on: SK-MEL-28 melanoma
A498 renal = tested on: A498 renal
PC-3 prostate = tested on: PC-3 prostate
HCT-116 colon = tested on: HCT-116 colon
SF-539 CNS = tested on: SF-539 CNS
OVCAR-8 ovarian = tested on: OVCAR-8 ovarian
SF-295 CNS = tested on: SF-295 CNS
NCI-H23 lung = tested on: NCI-H23 lung
EKVX NSCLC = tested on: EKVX NSCLC
MALME-3M melanoma = tested on: MALME-3M melanoma
SF-268 CNS = tested on: SF-268 CNS
SNB-19 CNS = tested on: SNB-19 CNS
HL-60(TB) leukemia = tested on: HL-60(TB) leukemia
DU-145 prostate = tested on: DU-145 prostate
HT29 colon = tested on: HT29 colon

SMILES	TGI (HCC-2998 colon)	TGI (SK-MEL-28 melanoma)	TGI (A498 renal)	TGI (PC-3 prostate)	TGI (HCT-116 colon)	TGI (SF-539 CNS)	TGI (OVCAR-8 ovarian)	TGI (SF-295 CNS)	TGI (NCI-H23 lung)	TGI (EKVX NSCLC)	TGI (MALME-3M melanoma)	TGI (SF-268 CNS)	TGI (SNB-19 CNS)	TGI (HL-60(TB) leukemia)	TGI (DU-145 prostate)	TGI (HT29 colon)	GI50 (SK-MEL-28 melanoma)	GI50 (SF-295 CNS)	GI50 (MALME-3M melanoma)	GI50 (SNB-19 CNS)
O=C1CC(c2ccco2)C2(C(=O)NC(=O)NC2=O)C(c2ccco2)C1 (stereo unspecified)	> 75 µM	> 75 µM	> 75 µM	> 75 µM	> 75 µM	> 75 µM	> 75 µM	> 75 µM	> 75 µM	> 75 µM	> 75 µM	> 75 µM	> 75 µM	> 75 µM	> 75 µM	> 75 µM				
Nc1nc(Cl)cc(NCC2(CO)CC(CCc3ccccc3)C2)n1 (stereo unspecified)	> 100 µM	> 100 µM	> 100 µM	> 100 µM	> 100 µM	> 100 µM	> 100 µM	> 100 µM	> 100 µM	> 100 µM	> 100 µM	> 100 µM	> 100 µM	> 94.2 µM	> 100 µM	> 100 µM				
Clc1nc(Cl)nc(NC23CC4CC(CC(C4)C2)C3)n1	41.2 µM	36.8 µM	> 58.3 µM	> 49.6 µM	31.3 µM	35 µM	34.9 µM	45.9 µM	34.1 µM	37.4 µM	30.5 µM	38.2 µM	40.3 µM	16.5 µM	31.3 µM	37.9 µM				
Cc1ccc(N=Nc2c3c(c(O)c4ccccc24)CCC(C)(C)O3)cc1	34.3 µM	42.1 µM	38.6 µM	> 100 µM	49.2 µM	> 100 µM	> 100 µM	28.8 µM	28.6 µM	75.3 µM	21.6 µM	> 100 µM	42.7 µM	49.7 µM	26 µM	35.7 µM				
COc1ccc(Nc2c(C#N)c3n(c4ccccc24)c2ccccc2[n+]3C)cc1OC	13.7 µM	17.9 µM	20.4 µM	8.38 µM	7.56 µM	6.88 µM	18.5 µM	11 µM	19.3 µM	10.1 µM	15.8 µM	8.25 µM	32.4 µM	> 100 µM	18.5 µM	23 µM				
Cc1c(Cl)ccc2c(=O)c3cccc(CC(=O)O)c3oc12	> 100 µM	> 100 µM	> 100 µM	> 100 µM	> 100 µM	> 100 µM	> 100 µM	> 100 µM	> 100 µM	> 100 µM	> 100 µM	> 100 µM	> 100 µM	> 100 µM	> 100 µM	> 100 µM				
COC(=O)C1(Cc2ccccc2)Cc2cc3c(cc2C1=O)CCC3 (stereo unspecified)	9.64 µM	> 100 µM	82 µM	> 100 µM	> 100 µM	> 100 µM	> 100 µM	> 100 µM	> 100 µM	86.1 µM	56.6 µM	> 100 µM	> 100 µM	36.7 µM	> 100 µM	36 µM				
Cc1ccc2c(c1C)CC1(Cc3c(ccc4c3CCC4)C1=O)C2=O (stereo unspecified)	> 100 µM	> 100 µM	> 100 µM	> 100 µM	> 100 µM	> 100 µM	> 100 µM	> 100 µM	> 100 µM	> 100 µM	> 100 µM	> 100 µM	> 100 µM	> 100 µM	> 100 µM	> 100 µM				
Nc1nc2ncc(SCc3ccc(C(=O)NC(CCC(=O)O)C(=O)O)cc3)cc2c(=O)[nH]1 (stereo unspecified)	> 100 µM	> 100 µM	> 100 µM	> 100 µM	> 100 µM	> 100 µM	> 100 µM	> 100 µM	> 100 µM	> 100 µM	> 100 µM	> 100 µM	> 100 µM	> 100 µM	> 100 µM	> 100 µM				
COc1ccc(-c2c(C#N)c(S)n(C3OC(COC(C)=O)C(OC(C)=O)C(OC(C)=O)C3OC(C)=O)c(=O)c2C#N)cc1 (stereo unspecified)	98.9 µM and 64.6 µM	> 100 µM and 37.3 µM	90.5 µM and 77.3 µM	> 100 µM	> 100 µM	> 100 µM	> 100 µM	> 100 µM	> 100 µM	> 100 µM	> 100 µM	> 100 µM	> 100 µM	> 100 µM and 45.6 µM	> 100 µM	> 100 µM	> 100 µM and 20.8 µM	36.1 µM and 87.1 µM	77.1 µM and 37.7 µM	34.1 µM and 75.3 µM
CCOC(=O)c1cc2c([N+](=O)[O-])c(NC(C)=O)ccc2s1	> 100 µM	> 100 µM	> 100 µM	> 100 µM	> 100 µM	> 100 µM	> 100 µM	> 100 µM	> 100 µM	98 µM	> 100 µM	> 100 µM	> 100 µM	> 100 µM	> 100 µM	> 100 µM				
Cc1cn(C2CC(N)C(CN)O2)c(=O)[nH]c1=O (stereo unspecified)	> 100 µM	> 100 µM	> 100 µM	> 100 µM	> 100 µM	> 100 µM	> 100 µM	> 100 µM	> 100 µM	> 100 µM	> 100 µM	> 100 µM	> 100 µM	> 100 µM	> 100 µM	> 100 µM				
CC[C@@H]1CC[C@@H]2[C@H](CC[C@]3(C)[C@@H](O)CC[C@@H]23)[C@H]1C(=O)O	> 100 µM	> 100 µM	> 100 µM	> 100 µM	> 100 µM	> 100 µM	> 100 µM	> 100 µM	> 100 µM	> 100 µM	> 100 µM	> 100 µM	> 100 µM	> 100 µM	> 100 µM	> 100 µM				
N#Cc1c(N)[nH]c(=S)c(C#N)c1-c1cccc(Cl)c1	35.6 µM	> 100 µM	> 100 µM	60.1 µM	60.6 µM	> 100 µM	> 100 µM	> 100 µM	> 100 µM	97.9 µM	> 100 µM	56.1 µM	> 100 µM	65.2 µM	> 100 µM	> 100 µM				
C=CC(=O)c1ccc2c(c1)OCCOCCOCCOCCOCCO2	> 100 µM	34 µM	> 100 µM	76.5 µM	> 56.2 µM	33.2 µM	41.9 µM	> 100 µM	> 64.2 µM	57.9 µM	33.6 µM	> 92.8 µM	> 100 µM	> 100 µM	> 100 µM	> 56.5 µM				
COc1ccc(-c2c(C#N)c(N)n(C3OC(CO)C(O)C(O)C3O)c(=S)c2C#N)cc1 (stereo unspecified)	> 100 µM	> 100 µM	> 100 µM	> 100 µM	> 100 µM	> 100 µM	> 100 µM	> 100 µM	> 100 µM	> 100 µM	> 100 µM	> 100 µM	> 100 µM	> 100 µM	> 100 µM	> 100 µM		64.7 µM and 22.3 µM		
